Test results published in patent publication US9618509B2 (priority 2007, dated 2017).

Experiments:
[1] = tested on: PBMC isolated from M. bovis-infected cattle; type: cell-based
[2] = tested on: PBMC isolated from M. bovis-infected cattle; type: cell-based; remark: listed apart in the source
M. bovis infected cattle = settings: Mustafa et al., 2006, cited from earlier work

Substance	intracellular IFN-γ production [1]	recognition / response in ELISPOT (cattle responding of the three tested) [2]	other results
RIAAKIYSEA DEAWRKAIDG (RIAAKIYSEADEAWRKAIDG; fragment of full length protein) [SEQ ID NO: 12]	Markedly higher levels of IFN-γ		
GVDLAKSLRI AAKIYSEADE (GVDLAKSLRIAAKIYSEADE; fragment of full length protein) [SEQ ID NO: 11]	no IFN-γ response	a response was recorded	dead cells in the sample [1]: > 64%
Rv3616c: product of the first gene of the Rv3616c-Rv3612c operon, a dominant mycobacterial antigen (Mustafa et al., 2006)			vaccinated individuals that respond (M. bovis infected cattle; BCG vaccinated): 40%; frequency of recognition in M. bovis infected cattle (M. bovis infected cattle): 84.6%
AKIYSEADEA WRKAIDGLFT (AKIYSEADEAWRKAIDGLFT; fragment of full length protein) [SEQ ID NO: 13]	Markedly higher levels of IFN-γ	all three	average spot-forming units (SFU) [2]: 509 SFU per 10^6 PBMC
VYLTAHNALG SSLHTAGVDL (VYLTAHNALGSSLHTAGVDL; fragment of full length protein) [SEQ ID NO: 9]	Markedly higher levels of IFN-γ		
LGSSLHTAGV DLAKSLRIAA (LGSSLHTAGVDLAKSLRIAA; fragment of full length protein) [SEQ ID NO: 10]	Markedly higher levels of IFN-γ		
